Experimental data as given in US7629310B2, “RhoB as a suppressor of cancer cell growth, cell transformation, and metastasis” (University of South Florida, priority 2000, dated 2009).

How the values were obtained:
RhoB promoter [1] = assay: RhoB promoter transcriptional activity (luciferase reporter) in NIH3T3 cells; format: cell-based
Text: Gene Constructs and RhoB Promoter Transcriptional Activity Assay. Constitutively active H-Ras61L, K-RasV12, N-RasV12, and dominant negative […]-Ras were kind gifts from Dr. Channing Der (University of North Carolina) (Khosravi-Far, R. et al., Mol Cell Biol, 1995, 15:6443-53; Quilliam, L. A. et al., Mol Cell Biol, 1994, 14:1113-21). Wild-type RhoA and RhoB were subcloned into hemaglutinin (HA)-tagged pcDNA3 (INVITROGEN). The orientation and the sequences of these genes were confirmed by DNA sequencing facilities at the H. Lee Moffitt Cancer Center, Tampa, Fla. RhoB promoter construct pGEI was kindly provided by Dr Y. Monden (Banyu Tsukuba Research, Japan) (Nakamura et al., 1996). pCMV-β-galactosidase vector was purchased from INVITROGEN. The plasmid containing CA-, DN-PI3K, Mek and Akt were kindly provided by Dr. Julie Y. Djeu (H. Lee Moffitt Cancer and Research Institute, Tampa, Fla.) (Jiang, K. et al., Blood, 2003, 101:236-44). β-galactosidase activity and luciferase assay kits were purchased from PROMEGA Corporation, Madison, Wis. The serum response element (SRE) reporter was provided by Dr. Richard Jove, H. Lee Moffitt Cancer and Research Institute, Tampa, Fla. (Turkson, J. et al., Mol Cell Biol, 1999, 19:7519-28). […] Richard Jove, Oncology program, H. Lee Moffitt Cancer and Research Institute, Tampa, Fla. (Turkson, J. et al., Mol Cell Biol, 1999, 19:7519-28). […] (Luetteke, N. C. et al., Genes Dev, 1994, 8:399-413). DNA transfection was performed with the standard lipofectamine protocol (INVITROGEN). […] After transfection the cells were grown for another 36-48 h. Cells were then washed twice with PBS and lyzed in Promega Passive Lysis Buffer. Aliquots of the lysates were then used to measure the luciferase and β-galactosidase activities. The luciferase values were first divided by β-galactosidase values. The RhoB promoter transcriptional activity was determined by dividing the luciferase/β-Gal values from oncogene-transfected cells by those from pcDNA3-transfected cells. […] All the samples were performed in triplicate and the averages of 3 independent experiments were reported here.

RhoB promoter [2] = assay: RhoB promoter transcriptional activity (luciferase reporter) in human cancer cell lines A-549, Panc-1, C33A; format: cell-based; conditions: for RhoB Promoter transcriptional activity (% inhibition): vs pcDNA3 control
Text: Gene Constructs and RhoB Promoter Transcriptional Activity Assay. Constitutively active H-Ras61L, K-RasV12, N-RasV12, and dominant negative […]-Ras were kind gifts from Dr. Channing Der (University of North Carolina) (Khosravi-Far, R. et al., Mol Cell Biol, 1995, 15:6443-53; Quilliam, L. A. et al., Mol Cell Biol, 1994, 14:1113-21). Wild-type RhoA and RhoB were subcloned into hemaglutinin (HA)-tagged pcDNA3 (INVITROGEN). The orientation and the sequences of these genes were confirmed by DNA sequencing facilities at the H. Lee Moffitt Cancer Center, Tampa, Fla. RhoB promoter construct pGEI was kindly provided by Dr Y. Monden (Banyu Tsukuba Research, Japan) (Nakamura et al., 1996). pCMV-β-galactosidase vector was purchased from INVITROGEN. The plasmid containing CA-, DN-PI3K, Mek and Akt were kindly provided by Dr. Julie Y. Djeu (H. Lee Moffitt Cancer and Research Institute, Tampa, Fla.) (Jiang, K. et al., Blood, 2003, 101:236-44). β-galactosidase activity and luciferase assay kits were purchased from PROMEGA Corporation, Madison, Wis. The serum response element (SRE) reporter was provided by Dr. Richard Jove, H. Lee Moffitt Cancer and Research Institute, Tampa, Fla. […] Richard Jove, Oncology program, H. Lee Moffitt Cancer and Research Institute, Tampa, Fla. […] Human EGFR, ErbB2 cDNA construct were kindly provided by Dr. Noreen Luetteke, H. Lee Moffitt Cancer and Research Institute, Tampa, Fla. (Luetteke, N. C. et al., Genes Dev, 1994, 8:399-413). DNA transfection was performed with the standard lipofectamine protocol (INVITROGEN). Briefly, cells were plated in 60-mm plates, pGEI plasmid was used at 2 μg per plate, whereas all the other plasmids were used at 0.1-1.0 μg per plate. After transfection the cells were grown for another 36-48 h. Cells were then washed twice with PBS and lyzed in Promega Passive Lysis Buffer. Aliquots of the lysates were then used to measure the luciferase and β-galactosidase activities. The luciferase values were first divided by β-galactosidase values. The RhoB promoter transcriptional activity was determined by dividing the luciferase/β-Gal values from oncogene-transfected cells by those from pcDNA3-transfected cells. […] All the samples were performed in triplicate and the averages of 3 independent experiments were reported here. Proteins that induce malignant transformation and those that suppress tumorigenesis most likely antagonize each other's functions. […] Du, W. et al., Mol Cell Biol, 1999, 19:1831-40; Du, W. and Prendergast, G. C., Cancer Res, 1999, 59:5492-6). An objective of the experiments described herein was to determine whether oncogenes that are prevalent in human cancers suppress RhoB expression, and whether RhoB antagonizes the ability of these oncogenes to induce malignant transformation. To this end, the effects of several oncogenes on RhoB promoter transcriptional activity were first evaluated. NIH3T3 cells and human cancer cell lines derived from lung (A-549), pancreatic (Panc-1) and cervical (C33A) tumors were transiently transfected with pcDNA3 empty vectors or pcDNA3 constructs containing various oncogenes along with full length RhoB promoter firefly luciferase reporter and SRE-renilla luciferase reporter as well as a β-gal reporter for controlling transfection efficiency as described in the Materials and Methods section.

NIH3T3 cells = assay: 5-FU-induced apoptosis (Annexin V, flow cytometry) in NIH3T3 cells; format: cell-based; conditions: NIH3T3, transfected 24 hours then 5-FU 48 hours (FIG. 10A); control 28-30%
Method: Apoptosis Assay. Cells were collected by trypsinization, washed in wash buffer and stained with Annexin V and 7-AAD according to manufacturer's recommendation (PharMingen, San Diego, Calif.). Data acquisition and analysis was performed by the Flow Cytometry Core Facility at the H. Lee Moffitt Cancer Center (Tampa, Fla.). All the samples were performed in duplicate and a representative of 3 independent experiments were reported here.

RhoB protein levels = assay: RhoB protein level by Western blotting in PANC-1 cells; format: cell-based, human; conditions: treated 48 hours (FIG. 7E)
Method: H-Ras/3T3 cells were treated with (FIG. 7A) different concentrations of LY294002 for 48 hrs or (FIG. 7B) LY294002 (20 μM) for different time intervals. The cells were then lysed and analyzed for RhoB and RhoA protein levels by Western Blotting with anti-RhoB and anti-RhoA; the same filter was re-probed with antiβ-actin for loading control. NIH3T3 cells (FIG. 7C) were transiently transfected with various genes as indicated for 24 hours; and then treated with either DMSO vehicle or LY294002 or 5-FU alone or in combination for another 48 hours. The cells were analyzed for RhoB, RhoA, and β-actin protein levels as described above. […] The cells were analyzed for RhoB and RhoA protein levels by Western Blotting with anti-RhoB and anti-RhoA; the same filter was re-probed with anti-β-actin, anti-HA and anti-pan-Akt antibodies. PANC-1 cells (FIG. 7E) and A549 cells (FIG. 7F) were treated PD, LY or 5-FU as indicated for 48 hours; then analyzed for RhoB and RhoA protein levels by Western Blotting as described above.
Western Blot Analysis. […] Antigen-bound antibody was detected by enhanced chemiluminescence Western blotting kit ([…] […] BIOTECH), Piscataway, N.J.). β-actin was detected as an internal loading control.

RhoB promoter [3] = assay: RhoB promoter transcriptional activity in H-Ras/3T3 cells; format: cell-based; conditions: treated 12 hours (FIG. 6B)
Text: The cell lysates were processed as in FIGS. 5A-5D. […] The cell lysates were processed as in FIGS. 5A-5D. […] The cell lysates were processed as in FIGS. 5A-5D. Gene Constructs and RhoB Promoter Transcriptional Activity Assay. Constitutively active H-Ras61L, K-RasV12, N-RasV12, and dominant negative […]-Ras were kind gifts from Dr. Channing Der (University of North Carolina) (Khosravi-Far, R. et al., Mol Cell Biol, 1995, 15:6443-53; Quilliam, L. A. et al., Mol Cell Biol, 1994, 14:1113-21). Wild-type RhoA and RhoB were subcloned into hemaglutinin (HA)-tagged pcDNA3 (INVITROGEN). The orientation and the sequences of these genes were confirmed by DNA sequencing facilities at the H. Lee Moffitt Cancer Center, Tampa, Fla. RhoB promoter construct pGEI was kindly provided by Dr Y. Monden (Banyu Tsukuba Research, Japan) (Nakamura et al., 1996). pCMV-β-galactosidase vector was purchased from INVITROGEN. The plasmid containing CA-, DN-PI3K, Mek and Akt were kindly provided by Dr. Julie Y. Djeu (H. Lee Moffitt Cancer and Research Institute, Tampa, Fla.) (Jiang, K. et al., Blood, 2003, 101:236-44). β-galactosidase activity and luciferase assay kits were purchased from PROMEGA Corporation, Madison, Wis. […] The RhoB promoter transcriptional activity was determined by dividing the luciferase/β-Gal values from oncogene-transfected cells by those from pcDNA3-transfected cells. […]

Q: How did the “inhibition of RhoB promoter activity” value (RhoB promoter [1]; NIH3T3, in the presence of N17-H-Ras) turn out when ErbB2: human ErbB2 cDNA construct was run?
A: 18%

Q: And the “RhoB Promoter transcriptional activity (% inhibition)” value (RhoB promoter [1]; NIH3T3, transiently transfected 36 hrs, vs pcDNA3 control)?
A: 79 ± 3.9%

Q: What about the “RhoB Promoter transcriptional activity (% inhibition)” value (RhoB promoter [2]; A549, transiently transfected 36 hrs) of the same compound?
A: 74 ± 4.3%

Q: What about the “RhoB Promoter transcriptional activity (% inhibition)” value (RhoB promoter [2]; C33A, transiently transfected 36 hrs) of the same compound?
A: 69 ± 3.6%

Q: And the “RhoB Promoter transcriptional activity (% inhibition)” value (RhoB promoter [2]; PANC1, transiently transfected 36 hrs)?
A: 68 ± 4.1%

Q: How did the “5-FU apoptotic rate after transfection” value (NIH3T3 cells) turn out when “Akt: Akt expression construct transfected into NIH3T3 cells” was run?
A: 17%

Q: With `COc1cccc(-c2cc(=O)c3ccccc3o2)c1N` [PD98059] as the compound, how does the “induction of RhoB protein levels” value (RhoB protein levels) read?
A: no induction

Q: What does the source list for `O=c1cc(N2CCOCC2)oc2c(-c3ccccc3)cccc12` [LY294002]?
A: 5-FU induction of RhoB promoter activity (RhoB promoter [2]; PANC-1 and A-549 cells expressing mutated K-Ras): sensitize these cells to 5-FU induction of RhoB promoter activity; induction of RhoB promoter activity (RhoB promoter [3]): 1.7 fold; induction of RhoB protein levels (RhoB protein levels): 8 fold
